Several values for one entry are separate records, joined by “and”; a condition that tells them apart may be missing. Equal entries are not always repeated. Marks after values point to notes of the source that are not given here.
Key:
COX-2 enzyme = molecular target: T1, COX-2 enzyme (Homo sapiens, UniProt P35354); assay: COX-2 enzyme inhibition assay (fluorimetric); assay type: biochemical; conditions: residual enzyme activity, 25 °C, pH 8, mean ± SD
T1 construct: purchased Cayman Chemical Company
T1 sequence (P35354 18-604): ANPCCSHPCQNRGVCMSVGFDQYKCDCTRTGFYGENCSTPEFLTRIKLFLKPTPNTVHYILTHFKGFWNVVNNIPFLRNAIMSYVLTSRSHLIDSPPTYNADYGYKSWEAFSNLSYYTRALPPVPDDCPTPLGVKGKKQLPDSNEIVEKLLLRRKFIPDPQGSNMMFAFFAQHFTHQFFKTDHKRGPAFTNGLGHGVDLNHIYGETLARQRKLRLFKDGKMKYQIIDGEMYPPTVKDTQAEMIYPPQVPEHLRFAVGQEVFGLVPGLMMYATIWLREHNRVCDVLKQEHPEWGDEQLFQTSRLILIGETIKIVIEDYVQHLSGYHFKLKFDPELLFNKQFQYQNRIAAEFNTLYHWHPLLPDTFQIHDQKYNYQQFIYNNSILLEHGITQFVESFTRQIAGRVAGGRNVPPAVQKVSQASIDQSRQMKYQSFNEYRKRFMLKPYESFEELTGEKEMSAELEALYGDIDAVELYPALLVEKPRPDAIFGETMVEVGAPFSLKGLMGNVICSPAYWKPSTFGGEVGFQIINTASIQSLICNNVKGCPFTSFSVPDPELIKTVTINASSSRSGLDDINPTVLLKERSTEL
Experimental: Next, the possible role of the bioactive fragment in the complexes was studied.
The IC50 value was obtained using GraphPad Prism 7 software. All of the inhibitor assays were performed at least in triplicate.

[1] = Stability in D2O/DMSO at 37 °C by 1H NMR; assay type: physicochemical; conditions: 24 h at 37 °C
Experimental: Conversely, [3–7]CF3SO3, containing either {Aryl–OCOAsp} or {Aryl-NHCOAsp} moieties, were stable under the same conditions. […] Complete conversion into the bis-hydroxide [8^2OH]^+ was achieved within 72 h. Similarly, [9,10]CF3SO3 undergo activation of the {C–Cl} bonds to give mixtures of the partially Cl/OH substituted species [9^OH]^+ and [10^OH]^+ and the fully substituted species [9^2OH]^+ and [10^2OH]^+.

[2] = Octanol–water partition coefficient (shake-flask, UV–vis); assay type: physicochemical; conditions: T = 21 °C
Experimental: The solubility of the complexes in D2O was assessed using ^1H NMR spectroscopy (see Table 1 and the Experimental Section for details). […] Data from the literature for the related nonfunctionalized complexes [2′,3′]CF3SO3 are compiled in Table 1 for comparison.[11] The octanol–water partition coefficients (Log Pow) were measured using a UV–vis method and fall within the −0.2 to +1.2 range (Table 1). […] For instance, Log Pow values of 1.07 and 0.65 are obtained for the geometric isomers [9]CF3SO3 and [10]CF3SO3, respectively. […]
Determination of partition coefficients (Log P ow)
Partition coefficients ( Pow; IUPAC: K D partition constant, 7,8 defined as Pow = corg/caq, where corg and caq are the molar concentrations of the selected compound in the organic and aqueous phases, respectively, were determined by the shake-flask method and UV-Vis measurements. 9 Values of Log Pow for diiron complexes are compiled in Table 2. All the operations were carried out at 21±1 °C. De -ionised water and 1-octanol were mixed and vigorously stirred for 24 hours at room temperature to allow saturation of both phases, then separated by centrifugation and used for the following experiments. A solution of the selected Fe compound in the organic phase (V = 5 mL) was prepared and its UV-Vis spectrum was recorded. An aliquot of the solution (Vorg = 1.5 mL) was then transferred into a test tube and the aqueous phase (Vorg = Vaq = 1.5 mL) was added. The mixture was vigorously stirred for 20 minutes and the resulting emulsion was centrifuged (5000 rpm, 10’). […]
the organic phase was recorded. The procedure was repeated three times for each compound. The partition coefficient was then calculated as PPow = AorgA0,org − Aorg, where A0,org and Aorg are the absorbance values in the organic phase, respectively before and after mixing with the aqueous phase. 9 UV-Vis measurements were carried out using 1 cm PMMA cuvettes. The wavelength of the maximum absorption of each compound was used for UV-Vis quantification.

[3] = test system: guanosine 5′-monophosphate (disodium salt, Na2[GMP]); assay: Reaction with model nucleotide GMP (mass spectrometry); conditions: D2O/CD3OD, 1 equiv Na2[GMP], 24 h at 37 °C
Experimental: The ability of [4]CF3SO3 and [9]CF3SO3 to interact with natural DNA was studied using the ethidium bromide (EB) exchange test (Figure 6), with the concentration of the complexes beingin the 1.5–124 μM range for [4]CF3SO3 and 1.4–135 μM for [9]CF3SO3. Blank experiments were carried out with the two bioactive molecules and also with DMSO to check for solvent/dilution effects. […] However, EB exchange titrations are suitable to recognize fast noncovalent binding events, but not subsequent slow covalent binding. Therefore, since chlorambucil is a DNA-alkylating agent, we studied the possible reaction of [9]CF3SO3 with the nucleotide guanosine 5′-monophosphate (disodium salt, Na2[GMP]; see Figure 4) as a model for DNA binding. Complex [9]CF3SO3 was incubated with a D2O/CD3OD mixture containing GMP for 24 h at 37 °C.
In order to analyze the interaction with a model nucleotide, a freshly prepared solution of [9]CF3SO3 (2 mg) in D2O/CD3OD (5/3 v/v) was treated with 1 equiv of anhydrous Na2[GMP]. The resulting mixture was maintained at 37 °C for 24 h, and then the final solution was filtered in order to remove some solid and analyzed by mass spectrometry. HPLC-MS(+): m/z found 1087.2451 [9^GMP + Na]^+, calcd for C47H53Fe2N8NaO12P 1087.2117; m/z found 555.0666 [9^GMP + 2Na]^2+, calcd for C47H53Fe2N8Na2O12P 555.1008. The isotopic patterns fit well the calculated patterns.

Question: For “[Fe2Cp2(CO)(μ-CO){μ-η^1:η^3-Cγ(3-C6H4OC(=O)C6H4OC(=O)Me)CβHCαNMe(Xyl)}]CF3SO3 [[4]CF3SO3]”, which IC50 (COX-2 enzyme) is on record?
Answer: 30 ± 3 µM

Question: What about the “stability (%), residual percent of complex” value ([1]; D2O/DMSO 2/1 v/v) of the same substance?
Answer: 59%

Question: And the “Log Pow” value [2]?
Answer: 1.06 ± 0.04

Question: Which “conversion into the neutral GMP adduct 9^GMP” value [3] does the source give for “[Fe2Cp2(CO)(μ-CO){μ-η^1:η^3-Cγ(3-C6H4NHC(=O)(CH2)3C6H4N(CH2CH2Cl)2)CβHCαNMe2}]CF3SO3 [[9]CF3SO3]” here?
Answer: almost complete conversion

Question: And the “stability (%), total percentage of diiron complexes with a chlorambucil-like group” value ([1]; D2O/DMSO 1/1 v/v)?
Answer: 88 ^b %

Question: What about the “Log Pow” value [2] of the same substance?
Answer: 1.07 and 1.07 ± 0.05

— article PMC8397425, “A Strategy to Conjugate Bioactive Fragments to Cytotoxic Diiron Bis(cyclopentadienyl) Complexes” (Organometallics, 2021)
